Laboratory results from patent publication US20220187282A1, “CARDIOMYOCYTE PROLIFERATION” (The Council of the Queensland Institute of Medical Research, priority 2019, published 2022).
Where two headings read alike, the source gives them in different places.

Experiments:
Assay type in all cases: biochemical
[1] = target: kinases (Homo sapiens, UniProt Q9UEE5); conditions: STK17A (DRAK1) FRET-Lantha SP; Test Conc(μM) 1
[2] = target: kinases (Homo sapiens, UniProt O75747); conditions: PIK3C2G FRET-Adapta SP; Test Conc(μM):ATP Conc(μM) 1:10
[3] = target: kinases (Homo sapiens, UniProt P31751); conditions: AKT2 (PKB beta) FRET-Z-Lyte SP; Test Conc(μM):ATP Conc(μM) 1:200
[4] = target: kinases (Homo sapiens, UniProt Q9UF33); conditions: EPHA6 FRET-Lantha SP; Test Conc(μM) 1
[5] = target: kinases (Homo sapiens, UniProt P41743); conditions: PRKCI (PKC iota) Z-Lyte SP; Test Conc(μM):ATP Conc(μM) 1:25
[6] = target: kinases (Homo sapiens, UniProt P08069); conditions: IGF1R FRET-Z-Lyte SP; Test Conc(μM):ATP Conc(μM) 1:150
[7] = target: kinases (Homo sapiens, UniProt P45983)
[8] = target: kinases (Homo sapiens, UniProt Q06418); conditions: TYRO3 (RSE) FRET-Z-Lyte SP; Test Conc(μM):ATP Conc(μM) 1:25
[9] = target: kinases (Homo sapiens, UniProt P78368); conditions: CSNK1G2 (CK1gamma2) Z-Lyte SP; Test Conc(μM):ATP Conc(μM) 1:5
[10] = target: kinases (Homo sapiens, UniProt Q9H1R3); conditions: MYLK2 FRET-Z-lyte SP
[11] = target: kinases (Homo sapiens, UniProt Q96SB4); conditions: SRPK1 FRET-Z-Lyte SP; Test Conc(μM):ATP Conc(μM) 1:25
[12] = target: kinases (Homo sapiens, UniProt Q9HAZ1); conditions: CLK4 FRET-Lantha SP; Test Conc(μM) 1
[13] = target: kinases (Homo sapiens, UniProt O75582); conditions: RPS6KA5 (MSK1) FRET-Z-Lyte SP; ATP Conc(μM):Test Conc(μM) 1:50
[14] = target: kinases (Homo sapiens, UniProt P21802); conditions: FGFR2 *Mn* FRET-Z-Lyte SP; Test Conc(μM):ATP Conc(μM) 1:5
[15] = target: kinases (Homo sapiens, UniProt P53350); conditions: PLK1 FRET-Z-Lyte SP; Test Conc(μM):ATP Conc(μM) 1:10
[16] = target: kinases (Homo sapiens, UniProt Q15208); conditions: STK38 FRET-Lantha SP; Test Conc(μM) 1
[17] = target: kinases (Homo sapiens, UniProt Q8TCG2); conditions: PI4K2B *Mn* FRET-Adapta SP; Test Conc(μM):ATP Conc(μM) 1:10
[18] = target: kinases (Homo sapiens, UniProt Q9UHD2); conditions: TBK1 FRET-Z-Lyte SP; Test Conc(μM):ATP Conc(μM) 1:25
[19] = target: kinases (Homo sapiens, UniProt O75914); conditions: PAK3 FRET-Z-Lyte SP; Test Conc(μM):ATP Conc(μM) 1:100
[20] = target: kinases (Homo sapiens, UniProt Q16566); conditions: CAMK4 (CaMKIV) FRET-Z-Lyte SP; Test Conc(μM):ATP Conc(μM) 1:25
[21] = target: kinases (Homo sapiens, UniProt Q14289); conditions: PTK2B (FAK2) *Mn* Z-Lyte SP; Test Conc(μM):ATP Conc(μM) 1:5
[22] = target: kinases (Homo sapiens, UniProt Q8IWQ3); conditions: BRSK2 FRET-Lantha SP; Test Conc(μM) 1
[23] = target: kinases (Homo sapiens, UniProt Q9H2X6); conditions: HIPK2 FRET-Z-Lyte SP; Test Conc(μM):ATP Conc(μM) 1:10
[24] = target: kinases (Homo sapiens, UniProt P52333); conditions: JAK3 FRET-Z-Lyte SP; Test Conc(μM):ATP Conc(μM) 1:10
[25] = target: kinases (Homo sapiens, UniProt P27361); conditions: MAPK3 (ERK1) FRET-Z-Lyte SP; Test Conc(μM):ATP Conc(μM) 1:50
[26] = target: kinases (Homo sapiens, UniProt Q14004); conditions: Test Conc(μM) 1
[27] = target: kinases (Homo sapiens, UniProt Q9NY57); conditions: STK32B (YANK2) FRET-Lantha SP; Test Conc(μM) 1
[28] = target: kinases (Homo sapiens, UniProt Q9P289); conditions: MST4 FRET-Z-Lyte SP; Test Conc(μM):ATP Conc(μM) 1:25
[29] = MAPK8 (JNK1) Cascade Z-Lyte SP, Test Conc(μM):ATP Conc(μM) 1:100
[30] = MAPK8 (JNK1) FRET-Lantha SP, Test Conc(μM) 1

Chain of kinases (Homo sapiens, UniProt P45983) (P45983 whole entry): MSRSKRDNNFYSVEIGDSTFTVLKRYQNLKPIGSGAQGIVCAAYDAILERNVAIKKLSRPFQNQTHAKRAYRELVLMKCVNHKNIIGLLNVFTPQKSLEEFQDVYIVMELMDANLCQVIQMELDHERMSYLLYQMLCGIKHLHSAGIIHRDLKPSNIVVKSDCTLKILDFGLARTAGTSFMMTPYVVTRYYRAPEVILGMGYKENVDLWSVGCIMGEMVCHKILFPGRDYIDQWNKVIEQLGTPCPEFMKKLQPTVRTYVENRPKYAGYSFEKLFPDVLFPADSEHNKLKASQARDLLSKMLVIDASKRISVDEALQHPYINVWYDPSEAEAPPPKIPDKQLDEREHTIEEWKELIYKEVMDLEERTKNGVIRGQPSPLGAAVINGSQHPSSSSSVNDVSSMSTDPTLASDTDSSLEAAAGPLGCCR
Chain of kinases (Homo sapiens, UniProt Q14289) (Q14289 whole entry): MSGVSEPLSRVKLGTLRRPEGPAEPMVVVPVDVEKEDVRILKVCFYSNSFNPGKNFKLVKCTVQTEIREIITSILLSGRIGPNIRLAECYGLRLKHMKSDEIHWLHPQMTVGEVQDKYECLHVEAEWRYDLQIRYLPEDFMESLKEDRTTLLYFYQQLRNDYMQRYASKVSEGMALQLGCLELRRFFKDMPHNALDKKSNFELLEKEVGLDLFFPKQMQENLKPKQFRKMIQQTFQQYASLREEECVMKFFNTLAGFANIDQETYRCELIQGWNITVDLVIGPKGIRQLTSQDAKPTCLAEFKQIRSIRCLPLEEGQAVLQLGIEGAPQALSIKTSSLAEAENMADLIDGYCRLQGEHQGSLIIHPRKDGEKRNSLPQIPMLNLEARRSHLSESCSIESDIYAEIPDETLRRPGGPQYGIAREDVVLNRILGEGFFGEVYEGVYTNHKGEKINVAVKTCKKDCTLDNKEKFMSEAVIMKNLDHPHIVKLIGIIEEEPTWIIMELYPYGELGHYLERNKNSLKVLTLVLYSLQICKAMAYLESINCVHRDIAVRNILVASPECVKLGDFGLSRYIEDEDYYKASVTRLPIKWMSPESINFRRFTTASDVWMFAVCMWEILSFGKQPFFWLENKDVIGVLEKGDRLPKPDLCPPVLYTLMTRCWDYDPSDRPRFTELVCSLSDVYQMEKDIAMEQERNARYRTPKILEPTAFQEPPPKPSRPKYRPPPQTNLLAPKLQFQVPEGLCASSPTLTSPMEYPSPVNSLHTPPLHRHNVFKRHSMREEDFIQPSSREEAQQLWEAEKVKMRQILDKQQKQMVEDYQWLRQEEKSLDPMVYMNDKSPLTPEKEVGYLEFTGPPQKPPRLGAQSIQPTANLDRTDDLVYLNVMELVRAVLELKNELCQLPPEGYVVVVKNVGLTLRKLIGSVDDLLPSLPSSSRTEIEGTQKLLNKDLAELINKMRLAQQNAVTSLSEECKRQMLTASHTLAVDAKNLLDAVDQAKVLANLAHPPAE
Chain of kinases (Homo sapiens, UniProt P53350) (P53350 whole entry): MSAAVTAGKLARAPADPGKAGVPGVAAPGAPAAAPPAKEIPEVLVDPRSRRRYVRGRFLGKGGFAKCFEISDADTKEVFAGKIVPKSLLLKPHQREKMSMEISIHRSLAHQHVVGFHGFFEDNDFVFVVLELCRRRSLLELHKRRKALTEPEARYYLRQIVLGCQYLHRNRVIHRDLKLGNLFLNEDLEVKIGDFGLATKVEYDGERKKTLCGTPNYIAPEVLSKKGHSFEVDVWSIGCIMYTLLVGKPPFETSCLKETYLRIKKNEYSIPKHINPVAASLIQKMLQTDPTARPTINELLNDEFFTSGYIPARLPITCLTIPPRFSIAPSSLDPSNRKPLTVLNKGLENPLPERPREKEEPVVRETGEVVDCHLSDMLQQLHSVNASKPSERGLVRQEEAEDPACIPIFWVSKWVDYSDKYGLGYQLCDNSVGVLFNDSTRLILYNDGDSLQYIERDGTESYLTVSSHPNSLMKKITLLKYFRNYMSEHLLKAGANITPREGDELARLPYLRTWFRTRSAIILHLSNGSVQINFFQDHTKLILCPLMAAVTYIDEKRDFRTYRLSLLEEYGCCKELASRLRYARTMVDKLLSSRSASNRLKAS
Chain of kinases (Homo sapiens, UniProt Q06418) (Q06418 41-890): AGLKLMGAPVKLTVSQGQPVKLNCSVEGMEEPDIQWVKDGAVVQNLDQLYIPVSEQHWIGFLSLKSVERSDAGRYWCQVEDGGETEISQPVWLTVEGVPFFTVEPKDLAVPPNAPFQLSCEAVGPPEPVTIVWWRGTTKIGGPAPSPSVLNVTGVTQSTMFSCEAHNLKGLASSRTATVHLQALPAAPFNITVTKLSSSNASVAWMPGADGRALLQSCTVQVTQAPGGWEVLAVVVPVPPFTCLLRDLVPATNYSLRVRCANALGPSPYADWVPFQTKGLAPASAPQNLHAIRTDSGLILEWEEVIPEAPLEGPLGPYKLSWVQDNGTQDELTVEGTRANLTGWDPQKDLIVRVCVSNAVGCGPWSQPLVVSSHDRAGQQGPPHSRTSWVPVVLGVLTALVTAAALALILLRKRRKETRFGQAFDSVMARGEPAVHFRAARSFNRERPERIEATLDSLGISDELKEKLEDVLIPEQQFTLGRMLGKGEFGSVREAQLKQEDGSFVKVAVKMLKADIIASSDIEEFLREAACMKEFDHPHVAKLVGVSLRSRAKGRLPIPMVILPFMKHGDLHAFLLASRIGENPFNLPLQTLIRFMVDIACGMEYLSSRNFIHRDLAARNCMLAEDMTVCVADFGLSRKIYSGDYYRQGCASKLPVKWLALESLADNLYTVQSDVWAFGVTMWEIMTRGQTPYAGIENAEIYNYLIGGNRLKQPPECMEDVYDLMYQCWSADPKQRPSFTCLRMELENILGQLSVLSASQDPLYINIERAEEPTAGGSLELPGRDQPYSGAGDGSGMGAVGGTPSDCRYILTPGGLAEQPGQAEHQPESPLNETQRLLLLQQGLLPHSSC
Chain of kinases (Homo sapiens, UniProt P41743) (P41743 whole entry): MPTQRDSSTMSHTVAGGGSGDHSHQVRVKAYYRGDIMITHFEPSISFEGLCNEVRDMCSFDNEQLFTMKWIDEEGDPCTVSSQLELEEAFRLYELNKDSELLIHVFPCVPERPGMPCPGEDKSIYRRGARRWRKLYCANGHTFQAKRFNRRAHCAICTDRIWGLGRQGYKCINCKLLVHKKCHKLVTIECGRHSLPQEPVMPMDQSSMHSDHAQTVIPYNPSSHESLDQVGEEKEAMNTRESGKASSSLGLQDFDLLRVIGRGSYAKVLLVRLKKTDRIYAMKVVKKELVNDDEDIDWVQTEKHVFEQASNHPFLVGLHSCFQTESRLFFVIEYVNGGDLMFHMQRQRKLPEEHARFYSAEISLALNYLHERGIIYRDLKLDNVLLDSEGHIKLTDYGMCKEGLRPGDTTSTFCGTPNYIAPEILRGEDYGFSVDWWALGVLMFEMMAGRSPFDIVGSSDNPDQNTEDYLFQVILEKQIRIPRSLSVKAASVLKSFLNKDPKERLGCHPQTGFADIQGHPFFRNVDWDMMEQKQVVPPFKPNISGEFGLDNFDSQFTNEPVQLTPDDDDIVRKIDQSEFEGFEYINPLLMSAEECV
Chain of kinases (Homo sapiens, UniProt Q8TCG2) (Q8TCG2 whole entry): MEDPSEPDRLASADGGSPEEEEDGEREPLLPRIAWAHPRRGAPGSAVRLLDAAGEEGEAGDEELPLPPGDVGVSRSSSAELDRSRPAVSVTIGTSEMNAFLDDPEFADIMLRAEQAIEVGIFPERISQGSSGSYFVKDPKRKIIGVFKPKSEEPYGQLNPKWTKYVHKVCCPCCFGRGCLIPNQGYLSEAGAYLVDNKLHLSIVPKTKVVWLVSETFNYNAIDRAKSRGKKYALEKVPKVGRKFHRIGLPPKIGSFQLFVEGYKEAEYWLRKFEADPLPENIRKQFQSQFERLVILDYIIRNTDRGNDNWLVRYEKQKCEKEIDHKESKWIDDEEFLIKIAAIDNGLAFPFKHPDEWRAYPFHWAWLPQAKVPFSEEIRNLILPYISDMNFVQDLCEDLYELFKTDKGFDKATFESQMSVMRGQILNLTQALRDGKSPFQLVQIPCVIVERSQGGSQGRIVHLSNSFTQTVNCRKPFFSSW
Chain of kinases (Homo sapiens, UniProt P21802) (P21802 22-821): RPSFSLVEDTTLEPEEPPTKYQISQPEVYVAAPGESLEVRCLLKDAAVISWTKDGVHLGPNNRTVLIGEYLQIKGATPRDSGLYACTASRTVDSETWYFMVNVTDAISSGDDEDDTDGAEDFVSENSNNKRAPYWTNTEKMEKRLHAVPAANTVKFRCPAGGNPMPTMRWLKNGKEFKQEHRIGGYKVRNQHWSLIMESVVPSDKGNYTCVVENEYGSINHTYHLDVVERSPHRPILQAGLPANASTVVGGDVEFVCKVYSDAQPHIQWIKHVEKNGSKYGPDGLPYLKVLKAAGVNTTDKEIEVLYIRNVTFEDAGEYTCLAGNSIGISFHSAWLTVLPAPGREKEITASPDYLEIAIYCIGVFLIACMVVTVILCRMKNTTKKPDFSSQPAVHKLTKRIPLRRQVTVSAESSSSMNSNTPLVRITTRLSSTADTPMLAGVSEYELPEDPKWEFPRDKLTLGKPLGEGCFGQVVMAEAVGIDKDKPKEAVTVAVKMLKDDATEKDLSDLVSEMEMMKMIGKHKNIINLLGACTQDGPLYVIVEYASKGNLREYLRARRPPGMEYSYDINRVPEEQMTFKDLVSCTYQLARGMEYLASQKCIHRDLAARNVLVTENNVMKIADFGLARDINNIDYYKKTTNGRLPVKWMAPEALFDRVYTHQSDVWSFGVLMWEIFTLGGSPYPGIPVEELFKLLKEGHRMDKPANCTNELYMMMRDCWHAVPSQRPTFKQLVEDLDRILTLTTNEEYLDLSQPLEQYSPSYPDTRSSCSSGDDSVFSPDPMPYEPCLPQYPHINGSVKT

Structure (SMILES)	Mean Inhib (%) [1]	Mean Inhib (%) [2]	Mean Inhib (%) [3]	Mean Inhib (%) [4]	Mean Inhib (%) [5]	Mean Inhib (%) [6]	Mean Inhib (%) [7, 29]	Mean Inhib (%) [7, 30]	Mean Inhib (%) [8]	Mean Inhib (%) [9]	Mean Inhib (%) [11]	Mean Inhib (%) [12]	Mean Inhib (%) [13]	Mean Inhib (%) [14]	Mean Inhib (%) [15]	Mean Inhib (%) [16]	Mean Inhib (%) [17]	Mean Inhib (%) [18]	Mean Inhib (%) [19]	Mean Inhib (%) [20]	further results
Cc1ccc(NC(=O)c2ccnc(N3CCOCC3)c2)cc1Nc1ccnc(N2CC(C)OC(C)C2)n1 (stereo not shown) [compound 3]	4.6%	5.6%	8.0%	1.9%	−0.2%	11.6%	6.5%	−6.1%	9.3%	3.9%	7.6%	6.4%	1.6%	15.8%	3.0%	−9.2%	−15.8%	−0.8%	−0.3%	−5.4%	Mean Inhib (%) ([10]; Test Conc(μM):ATP Conc(μM) 1:300): 7.4%; Mean Inhib (%) [21]: 8.5%; Mean Inhib (%) [22]: 3.2%; Mean Inhib (%) [23]: −3.2%; Mean Inhib (%) [24]: 7.2%; Mean Inhib (%) [25]: 5.1%; Mean Inhib (%) ([26]; CDK13 Cyclin K FRET-Lantha SP): 5.4%; Mean Inhib (%) [27]: −1.3%; Mean Inhib (%) [28]: 16.7%
Cc1cc(Oc2ccnc(Nc3ccc(S(N)(=O)=O)cc3)c2)c(-c2ccccn2)nc1C [compound 65]	−1.2%	0.4%	2.3%	54.2%	9.7%	6.5%	16.9%	7.0%	1.4%	5.9%	2.9%	0.4%	10.0%	6.0%	9.6%	3.1%	1.8%	4.2%	23.3%	−1.8%	Mean Inhib (%) ([10]; Test Conc(μM):ATP Conc(μM) 0.25): −7.8%; Mean Inhib (%) [21]: −2.5%; Mean Inhib (%) [22]: 10.2%; Mean Inhib (%) [23]: −0.8%; Mean Inhib (%) [24]: −7.8%; Mean Inhib (%) [25]: 1.1%; CDK13 Cyclin K FRET-Lantha SP Mean Mean Inhib (%) ([26]; CDK13 Cyclin K): 4.1%; Mean Inhib (%) [27]: 2.1%; Mean Inhib (%) [28]: −9.9%
